# Source: patent US5041426A, “Immune system enhancing 3-β-d-ribofuranosylthiazolo[4,5-d]pyridimine nucleosides and nucleotides” (priority 1988, dated 1991)
# Read-outs that look alike come from different tables or passages of the source.
# Key:
# San Angelo Virus [1] = assay type: in vivo, mouse; details: for Mean Survival Time: Time (21 days)
# YAC1 target cells = experiment: Natural killer cell activity in old C57BL/6J mice (in vivo treatment, spleen cells); parameters: species or system mouse
# Protocol: For this test compound 7 was injected at a dose of 1.67 mg per mouse and 3.34 mg per mouse and after a day the natural killer cell activity of the spleen cells was determined.
# i.p. route. Spleens after treatment were removed, cells were isolated and […]
# Human Coronavirus = experiment: Antiviral activity against human coronavirus infection in 14 day old mice; details: half daily doses at -24 and -18 h, of mice that died
# [2] = test system: Herpes Simplex Virus Type 1; experiment: Antiviral activity against Herpes simplex virus type 1 infection in mice; assay type: in vivo, mouse; details: at -48, -24, and -2 h
# [3] = test system: Human Peripheral Blood Mononuclear Cells; experiment: In vitro potentiation of IgM production by human PBMNC or B cells (ELISA); assay type: cell-based
# Protocol: After incubation, supernatants were harvested and checked for […]
# [4] = test system: Herpes Simplex Virus Type 2; experiment: Antiviral activity against Herpes simplex virus type 2 infection in mice; assay type: in vivo, mouse; details: for Mean Survival Time: at -48, -24, and -2 h
# Protocol: In this test Compound 7 was tested against both Herpes Simplex Type 1 Virus and Herpes Simplex Type 2 Virus. […] In each of these tests a placebo was utilized for control purposes. The survival time reflects survival time of those animals which succumbed during the test. […]
# ^b A 2% sodium bicarbonate solution was used as the placebo and as
# diluent for Compound -7.
# ^c Statistically significant (p < .05) difference between the
# drugtreated and placebo control mice, determined by the twotailed ttest.
# [5] = test system: Mastocytoma (P815) tumor cells; experiment: In vivo potentiation of cytotoxic lymphocytes activity against mastocytoma tumor cells; parameters: species or system mouse; details: for % Cytotoxicity: DBA/2 mice, compound 7 2 mg/mouse, interleukin-2 50 U per mouse
# Protocol: ^a Ten mice in each group were inoculated with 2 × 10^6
# tumor cells. After 5 hours, saline or nucleoside compound 7 solution (2
# mg/mouse) was administered to each mouse. On days 3,5,7 or 9, spleen cell
# were isolated and their cytotoxicity was determined against P815 tumor
# cells as described in Gonzales and Sharma.
# Compound 7 was tested to determine whether or not it can increase cytotoxic lymphocytes response against mastocytoma tumor cells. In the test mice were immunized with mastocytoma cells (P815) and after 5 hours compound 7 as a solution was given in a dose of […] per mouse.
# San Angelo Virus [6] = assay type: in vivo, mouse; details: compound 7 5 mg/kg at -24 h, saline days 0-6; of mice that died
# YAC-1 tumor target cells = experiment: In vivo potentiation of natural killer cell activity in CBA/CaJ mice (spleen cells); details: for % Natural Killer Cytotoxicity: 1.68 mg/mouse i.p.
# Protocol: After 1, 2, 3 and 4 days of treatment the spleens of the mice were harvested and the cytotoxic activity of the spleen cells was determined against YAC-1 tumor target cells in the above referred to ^51 Cr release assay as identified in EXAMPLE 32.
# (1.68 mg/mouse) by intraperitoneal route.
# Each value represents mean ±SD cytotoxic activity of three mice
# Mouse Cytomegalovirus = experiment: Antiviral activity against mouse cytomegalovirus infection in mice
compound,measurement,setting,value
"Nc1nc2c(sc(=O)n2[C@@H]2O[C@H](CO)[C@@H](O)[C@H]2O)c(=O)[nH]1 [Compound 7, 5-Amino-3-β-D-ribofuranosylthiazolo[4,5-d]pyrimidine-2,7(6H)-dione]",Mean Survival Time,"San Angelo Virus [1]; 50 mg/kg/day, once a day at -2 h and days 2, 4, 6",> 13.0 ± 0.0 days
same,Mean Survival Time,"San Angelo Virus [1]; 100 mg/kg/day, once a day at -2 h and days 2, 4, 6",> 21 days
same,Mean Survival Time,"San Angelo Virus [1]; 200 mg/kg/day, -2 h and days 2, 4, 6, half daily doses twice a day",> 21 days
same,Mean Survival Time,"San Angelo Virus [1]; 200 mg/kg/day, half-daily doses at 24 and 16 h pre-virus (prophylactic)",> 21 days
same,antiviral activity compared with Ribavirin,San Angelo Virus [1]; therapeutic and prophylactic mode,antiviral activity equal to that of Ribavirin
same,% Natural Killer Cell Cytotoxicity,"YAC1 target cells; 8 month old mice, 1.67 mg i.p., E:T 50:1",14%
same,% Natural Killer Cell Cytotoxicity,"YAC1 target cells; 8 month old mice, 1.67 mg i.p., E:T 100:1",19%
same,% Natural Killer Cell Cytotoxicity,"YAC1 target cells; 8 month old mice, 1.67 mg i.p., E:T 150:1",23%
same,% Natural Killer Cell Cytotoxicity,"YAC1 target cells; 8 month old mice, 3.34 mg i.p., E:T 50:1",17%
same,% Natural Killer Cell Cytotoxicity,"YAC1 target cells; 8 month old mice, 3.34 mg i.p., E:T 100:1",28%
same,% Natural Killer Cell Cytotoxicity,"YAC1 target cells; 8 month old mice, 3.34 mg i.p., E:T 150:1",38%
same,% Natural Killer Cell Cytotoxicity,"YAC1 target cells; 8 week old mice, 1.67 mg i.p., E:T 50:1",15%
same,% Natural Killer Cell Cytotoxicity,"YAC1 target cells; 8 week old mice, 1.67 mg i.p., E:T 100:1",20%
same,% Natural Killer Cell Cytotoxicity,"YAC1 target cells; 8 week old mice, 1.67 mg i.p., E:T 150:1",24%
same,% Natural Killer Cell Cytotoxicity,"YAC1 target cells; 8 week old mice, 3.34 mg i.p., E:T 50:1",17%
same,% Natural Killer Cell Cytotoxicity,"YAC1 target cells; 8 week old mice, 3.34 mg i.p., E:T 100:1",27%
same,% Natural Killer Cell Cytotoxicity,"YAC1 target cells; 8 week old mice, 3.34 mg i.p., E:T 150:1",31%
same,Mean Survival Time,Human Coronavirus; 50 mg/kg,6.9 ± 2.2 days
same,Mean Survival Time,Human Coronavirus; 100 mg/kg,7.2 ± 2.0 days
same,Mean Survival Time,Human Coronavirus; 200 mg/kg,7.0 ± 1.4 days
same,Mean Survival Time,[2]; 50 mg/kg/day,14.8 ± 5.0 days
same,Mean Survival Time,[2]; 100 mg/kg/day,11.4 ± 1.8 days
same,Mean Survival Time,[2]; 200 mg/kg/day,11.0 ± 1.7 days
same,increase of IgM over cultures without compound 7,[3]; SAC activated PBMNC,over a two fold increase
same,increase in IgM production,[3]; up to,up to 34 fold
same,Mean Survival Time,[4]; 50 mg/kg/day,11.8 ± 2.3 days
same,Mean Survival Time,[4]; 100 mg/kg/day,11.2 ± 1.5 days
same,toxicity,[4]; 200 mg per kg in the mouse,partially toxic
same,Mean Survival Time,[4]; 200 mg/kg/day,7.2 ± 3.9 days
same,deaths from drug toxicity,"[4]; 200 mg/kg/day, days 1 and 2 post virus inoculation",Three mice died on days 1 and 2
same,survival time of the rest of the mice that died,"[4]; 200 mg/kg/day, excluding three toxicity deaths",9.6 ± 0.8 days
same,% Cytotoxicity,"[5]; day 3, 4320 min",30%
same,% Cytotoxicity,"[5]; day 5, 7200 min",24%
same,% Cytotoxicity,"[5]; day 7, 10080 min",32%
same,% Cytotoxicity,"[5]; day 9, 12960 min",27%
same,cytotoxicity versus control group,[5]; p<0.05,statistically significant higherly cytotoxicity than the control group
same,Mean Survival Time,San Angelo Virus [6],9.6 ± 1.6 days
same,% Natural Killer Cytoxicity,"YAC-1 tumor target cells; 0.84 mg i.p., E:T 50:1",38 ± 7%
same,% Natural Killer Cytoxicity,"YAC-1 tumor target cells; 0.84 mg i.p., E:T 100:1",48 ± 9%
same,% Natural Killer Cytoxicity,"YAC-1 tumor target cells; 0.84 mg i.p., E:T 150:1",56 ± 8.5%
same,increase in natural killer cell activity,YAC-1 tumor target cells; 0.84 mg to 3.36 mg per mouse,all doses of compound 7 induced a marked increase in natural killer cell activity
same,% Natural Killer Cytoxicity,"YAC-1 tumor target cells; 1.68 mg i.p., E:T 50:1 (Table 4)",44 ± 8%
same,% Natural Killer Cytoxicity,"YAC-1 tumor target cells; 1.68 mg i.p., E:T 100:1 (Table 4)",56 ± 12%
same,% Natural Killer Cytoxicity,"YAC-1 tumor target cells; 1.68 mg i.p., E:T 150:1 (Table 4)",61 ± 14%
same,% Natural Killer Cytotoxicity,"YAC-1 tumor target cells; 1 day after treatment, E:T 50:1",53 ± 5%
same,% Natural Killer Cytotoxicity,"YAC-1 tumor target cells; 1 day after treatment, E:T 100:1",64 ± 5%
same,% Natural Killer Cytotoxicity,"YAC-1 tumor target cells; 1 day after treatment, E:T 150:1",71 ± 9%
same,% Natural Killer Cytotoxicity,"YAC-1 tumor target cells; 2 days after treatment, E:T 50:1",46 ± 9%
same,% Natural Killer Cytotoxicity,"YAC-1 tumor target cells; 2 days after treatment, E:T 100:1",64 ± 5%
same,% Natural Killer Cytotoxicity,"YAC-1 tumor target cells; 2 days after treatment, E:T 150:1",65 ± 7%
same,% Natural Killer Cytotoxicity,"YAC-1 tumor target cells; 3 days after treatment, E:T 50:1",38 ± 6.6%
same,% Natural Killer Cytotoxicity,"YAC-1 tumor target cells; 3 days after treatment, E:T 100:1",50 ± 7%
same,% Natural Killer Cytotoxicity,"YAC-1 tumor target cells; 3 days after treatment, E:T 150:1",63 ± 6%
same,% Natural Killer Cytotoxicity,"YAC-1 tumor target cells; 4 days after treatment, E:T 50:1",30 ± 0.1%
same,% Natural Killer Cytotoxicity,"YAC-1 tumor target cells; 4 days after treatment, E:T 100:1",37 ± 1.5%
same,% Natural Killer Cytotoxicity,"YAC-1 tumor target cells; 4 days after treatment, E:T 150:1",48 ± 3%
same,% Natural Killer Cytoxicity,"YAC-1 tumor target cells; 2.52 mg i.p., E:T 50:1",48 ± 6.6%
same,% Natural Killer Cytoxicity,"YAC-1 tumor target cells; 2.52 mg i.p., E:T 100:1",62 ± 7%
same,% Natural Killer Cytoxicity,"YAC-1 tumor target cells; 2.52 mg i.p., E:T 150:1",70 ± 5%
same,% Natural Killer Cytoxicity,"YAC-1 tumor target cells; 3.36 mg i.p., E:T 50:1",48 ± 4.6%
same,% Natural Killer Cytoxicity,"YAC-1 tumor target cells; 3.36 mg i.p., E:T 100:1",67 ± 10%
same,% Natural Killer Cytoxicity,"YAC-1 tumor target cells; 3.36 mg i.p., E:T 150:1",74 ± 6.4%
same,Emax,"YAC-1 tumor target cells; Mus musculus, YAC-1, 24 h, read-out: maximum response, increase in natural killer cell activity",382%
same,increase in natural killer cell activity,"YAC-1 tumor target cells; single injection 1.68 mg per mouse, after 4 days",More than a two fold increase
same,Mean Survival Time,"Mouse Cytomegalovirus; 50 mg/kg/day, once a day at -2 h and days 2, 4, 6 (therapeutic)",6.3 ± 1.1 days
same,Mean Survival Time,"Mouse Cytomegalovirus; 50 mg/kg/day, single dose 24 h pre-virus (prophylactic)",6.5 ± 0.8 days
same,Mean Survival Time,"Mouse Cytomegalovirus; 100 mg/kg/day, once a day at -2 h and days 2, 4, 6 (therapeutic)",6.0 ± 0.8 days
same,Mean Survival Time,"Mouse Cytomegalovirus; 100 mg/kg/day, single dose 24 h pre-virus (prophylactic)",7.0 ± 1.4 days
same,cure,"Mouse Cytomegalovirus; 200 mg per kg, prophylactic mode",100%
same,Mean Survival Time,"Mouse Cytomegalovirus; 200 mg/kg/day, half-daily doses 24 and 16 h pre-virus (prophylactic)",> 21 days
